Assay results from paper PMC5995255, “CD44 positive and sorafenib insensitive hepatocellular carcinomas respond to the ATP-competitive mTOR inhibitor INK128” (Oncotarget, 2018).

Tests used:
[1] = system: phosphorylation of 4EBP1; assay: Immunoblotting of phosphorylated 4EBP1; assay type: cell-based, human; settings: CD44high cells; 48 h
Description: (§1) Cell protein lysates (20–30 μg) were separated on NuPAGE 4–12% Bis-Tris gels (Novex) electrophoretically and transferred to polyvinylidene difluoride membranes (Roche). Membranes were blocked for 1 h with 5% Bovine Serum Albumin in Tris-buffered saline containing 0.05% Tween 20 and incubated overnight with primary antibody. The following primary antibodies were used: anti-CD44 (Cell signaling, #3578), anti-vimentin (Abcam, ab92547), anti-total S6K (Cell signaling, # 2708), anti-phosphorylated S6K (Cell signaling, #9234), anti-total 4EBP-1 (Cell signaling, #9644), anti-phosphorylated 4EBP-1(Cell signaling, #2855) and anti-PARP (Cell signaling # 9532) Anti-GAPDH (Santa Cruz Biotechnology, sc-32233) and anti-β actin (Cell Signaling, 4970S) antibodies were used as loading controls. A secondary anti-rabbit (Cell Signaling) or anti-mouse immunoglobulin G (IgG) antibody peroxidase conjugate (GE Healthcare) was detected using ECL Western Blotting Analysis System (Amersham Biosciences).

[2] = system: phosphorylation of S6K; assay: Immunoblotting of phosphorylated S6K; assay type: cell-based, human; settings: CD44high cells; 48 h
Description: as §1

[3] = system: HCC cell lines (SNU423, SNU449 and Huh7); assay: Cell proliferation, WST-1 assay, three HCC cell lines; assay type: cell-based, human; settings: 48 h
[4] = system: CD44 and vimentin protein expression in SNU423 cells; assay: Immunoblotting of CD44 and vimentin protein; assay type: cell-based, human; settings: 48 h; SNU423 (rapalogs also SNU449)
Description: as §1

[5] = system: SK-Hep1 subcutaneous xenografts; assay: SK-Hep1 xenograft efficacy study; assay type: in vivo, athymic nude mice
Description: Immunodeficient athymic nude male mice (8 weeks) were obtained from Charles River laboratories and kept in the University's animal housing facility. SK-Hep1 cells were prepared from a low-passage, logarithmically growing population of cells. SK-Hep1 (3 × 10^6 cells) were suspended in 150 ul of Matrigel (Corning, NY, USA) and injected subcutaneously into the right flank of the mice. Three weeks after implantation, tumor sizes were measured using a Fisherbrand™ Traceable™ Digital Caliper (Thermo), the animals were randomized based on tumor size, and treatment was initiated. Tumor size measurements were taken twice a week throughout the treatment period.
Athymic nude mice bearing SK-Hep1 tumors were randomized into four groups (n = 10 per group); vehicle, sorafenib, INK128 and combination. Sorafenib (10 mg/kg) was prepared as a 4× stock solution in cremophor EL:ethanol (50:50), and diluted using water on the day of the treatment. Vehicle and sorafenib groups received their respective treatments every day via oral gavage. INK128 (3 mg/kg) was prepared in 10% DMSO and dosed via oral gavage every other day. The combination group received a daily dose of sorafenib (10 mg/kg) along with INK128 (3 mg/kg) every other day. Mice were monitored every day, and body weight and tumor size measurements were recorded twice a week throughout the treatment period. Tumor volume was calculated using the equation V= ½ × L × W^2. Treatment was continued for 24 days after which the animals were euthanized. Tumor growth is represented as percentage change from baseline tumor volume.

[6] = system: Huh7CD44, PLC/PRF/5CD44, Huh7EV and PLC/PRF/5EV cells; assay: Cell proliferation, WST-1 assay, CD44 overexpressing versus empty vector cells; assay type: cell-based, human; settings: 72 h
Description: An optimized DNA fragment for CD44 overexpression was designed and ordered from Invitrogen using GeneArt® Gene Synthesis. The optimized DNA fragment was cloned using GeneArt® Seamless Cloning technology into a p-EGFP-C1 vector graciously obtained from Matthew Wood's Lab. Huh7 and PLC/PRF/5 cells (CD44low) were transfected with 1500 ng of either CD44 vector or empty vector using Lipofectamine 3000 (Invitrogen). Forty-eight h after transfection, cells were selected using 150 μg/ml hygromycin (Life Technologies). Western blotting was used to confirm successful transfection and expression of CD44.

[7] = system: CD44 or vimentin mRNA in SNU423 cells; assay: qRT-PCR of CD44 and vimentin mRNA; assay type: cell-based, human; settings: 500 nM; 48 h
Description: Total RNA was isolated from ATP-competitive mTOR inhibitor treated cells using miRNeasy® Mini kit (Qiagen). cDNA was synthesized according to the manufacturer's protocol (Invitrogen). Five hundred ng of total RNA was used to synthesize cDNA using random primers. cDNA was analyzed for gene expression using gene specific primers (IDT) and the Express SYBR® GreenER qPCR super mix (Invitrogen). Data were normalized to 18S rRNA and the relative expression of genes was presented using the comparative CT method. The following primers were used; CD44: 5′-TGCAGTT […]-3′ (forward) and 5′-[…]-3′ (reverse), Vimentin: 5′-CAGC […]-3′ (forward) and 5′-ATCCT […]-3′ (reverse), 18S: 5′-GT […]-3′(forward) and 5′-CCAT […]-3′(reverse)

[8] = system: CD44high HCC cells (SNU423, SNU449, SK-Hep-1); assay: Cell proliferation, WST-1 assay, CD44high HCC cells; assay type: cell-based, human
[9] = INK128 plasma pharmacokinetic study; assay type: in vivo, ICR mice
Description: All animal experiments were carried out under protocols approved by the Institutional Laboratory Animal Care and Use Committee at the Ohio State University. Imprinting control region (ICR) female mice (6 weeks) were obtained from Charles Rivers (Wilmington, MA, USA). Mice were acclimated in the animal housing facility for one week before the start of the study. After overnight fasting, INK128 (3 mg/kg) was administered by oral gavage (PO) in 10% DMSO. At different time points, mice were euthanized by carbon dioxide asphyxiation, and blood was immediately collected by cardiac puncture into lithium heparinized tubes (BD Microtainer, Becton, Dickson and Company, NJ, USA). Blood samples were centrifuged at 6000 × g for 5 min at 4°C. Plasma was collected and kept on dry ice before being stored at −80°C until analysis.
Plasma samples were thawed on ice. Blank mouse plasma was used for standard curves. Plasma aliquots (100 ul) were spiked with hesperetin (10 ul, 5000 ng/ml) as an internal standard and mixed by vortexing. Drugs were extracted with simple protein precipitation using cold acetonitrile, and the mixture was centrifuged at 13000 × g for 10 min. The supernatant was collected and dried under nitrogen. Dried samples were reconstituted with 200 ul 1% formic acid. Samples were analyzed using liquid chromatography–tandem mass spectrometry (LC-MS/MS) system consisting of Thermo Accela UHPLC pump, Thermo PAL autosampler, and Thermo TSQ Discovery triple quadruple mass spectrometer (Thermo, Waltham, MA, USA). Chromatographic separation was done using an Agilent Zobrax Extend C-18 column. Linear gradient elution was used at a flow rate of 400 ul/min, with a mobile phase of […] and 95% acetonitrile, modified with 0.2% formic acid. Non-compartmental analysis of the pharmacokinetic parameters as well as compartmental model fitting of the data was carried using Phoenix® 7.0 (Certara, New Jersey, USA).

[10] = system: sorafenib resistant Huh7 cells; assay: Cell proliferation, WST-1 assay, sorafenib resistant Huh7; assay type: cell-based, human; settings: 72 h
Description: A sorafenib-resistant Huh7 cell line was established by long term exposure to incremental concentrations of sorafenib (LC Laboratories, USA) as reported. Following six months of culture in 10 cm cell culture dishes, resistant cells were diluted out in 96 well plates and single cell clones were selected and scaled up to be used in further experiments.

[11] = system: SNU423 cells; assay: Wound healing (in vitro migration) assay; assay type: cell-based, human; settings: 500 nM; 30 h migration
Description: SNU423 cells were treated with either INK128 or everolimus at 500 nM or vehicle control (1% DMSO). At 24 h after treatment or transfection, 70 μl of the treated cells (3 × 10^5 cells/mL) was placed into each well of ibidi culture-insert (ibidi, LLC). After an overnight incubation, the culture insert was removed to create a cell-free gap in a monolayer of the cells. The gap closure area was photographed and analyzed by Tscratch software. Wound healing assay was further performed using Huh7 and PLC/PRF/5 cells to determine the effects of CD44 overexpression of migration. The percentage of the gap closure area based on the initial point at time zero was calculated from at least two independent experiments.

[12] = 3 mg/kg oral gavage, single dose, plasma
[13] = female, ICR, mouse, plasma, po, 3 mg/kg, 3 mg/kg oral gavage, single dose
[14] = female, ICR, mouse, 3 mg/kg oral gavage, single dose, plasma

Compound: CO[C@H]1C[C@@H]2CC[C@@H](C)[C@@](O)(O2)C(=O)C(=O)N2CCCC[C@H]2C(=O)O[C@H]([C@H](C)C[C@@H]2CC[C@@H](O)[C@H](OC)C2)CC(=O)[C@H](C)/C=C(\C)[C@@H](O)[C@@H](OC)C(=O)[C@H](C)C[C@H](C)/C=C/C=C/C=C/1C [rapamycin]
- phosphorylation of 4EBP1 [1]: did not inhibit
- phosphorylation of S6K [2]: blocked
- proliferation (lowest level reached) [3]: ≥ 40%
- CD44 and vimentin protein expression [4]: did not alter

Compound: CNC(=O)c1cc(Oc2ccc(NC(=O)Nc3ccc(Cl)c(C(F)(F)F)c3)cc2)ccn1 [sorafenib]
- tumor size increase compared to baseline ([5]; 10 mg/kg daily oral gavage, 24 days): 46%
- inhibition in tumor growth compared to vehicle control ([5]; 10 mg/kg daily oral, not significant): approximately 15%
- ability to reduce proliferation as a function of CD44 protein [6]: no difference

Compound: CC(C)n1nc(-c2ccc3oc(N)nc3c2)c2c(N)ncnc21 [INK128]
- phosphorylation of 4EBP1 [1]: inhibited
- reduction of tumor burden compared to vehicle control or sorafenib alone ([5]; 3 mg/kg every other day oral): up to 30%
- reduction in tumor volume (from baseline) ([5]; INK128 3 mg/kg every other day oral, alone or with sorafenib 10 mg/kg daily, 24 days): 24%
- phosphorylation of S6K [2]: inhibited
- CD44 or vimentin mRNA [7]: no change
- reduction of proliferation in CD44high compared to CD44low cells ([8]; 72 h, CD44low: Huh7, PLC/PRF/5, HepG2): more effective
- inhibition at 0.1 µM ([8]; Homo sapiens, 100 nM, CD44high cells (Figure 1C), read-out: inhibition in cellular proliferation): 60%
- anti-proliferative activity versus allosteric mTOR inhibitors ([8]; SNU423 and SNU449 cells, 48 h): better anti-proliferative activity than rapamycin and everolimus
- time with drug concentrations greater than 100 nM ([9]; 3 mg/kg oral gavage): approximately 16 h
- CL [9, 12]: 0.000582 L/min
- Cmax [9, 12]: 2030 nM
- tolerability ([9]; 3 mg/kg oral, all animals of the pharmacokinetic study): well tolerated
- Cmax [9, 13]: 2030 nM
- Tmax [9, 13]: ≤ 0.25 h
- concentration at 24 h ([9]; female, ICR, mouse, plasma, 3 mg/kg oral gavage, 24 h, read-out: plasma concentration 24 h post dose): 24.6 nM
- AUC(0-t) [9, 14]: 7.38 µM·h
- half-life [9, 14]: 1.81 h
- anti-proliferative effects versus wildtype CD44low Huh7 cells [10]: greater anti-proliferative effects
- decrease of cell movement compared to vehicle control [11]: 50%
- anti-proliferative response of CD44 expressing cells versus empty vector cells ([6]; 500 nM): responded better
- CD44 and vimentin protein expression [4]: great reduction

Compound: CO[C@H]1C[C@@H]2CC[C@@H](C)[C@@](O)(O2)C(=O)C(=O)N2CCCC[C@H]2C(=O)O[C@H]([C@H](C)C[C@@H]2CC[C@@H](OCCO)[C@H](OC)C2)CC(=O)[C@H](C)/C=C(\C)[C@@H](O)[C@@H](OC)C(=O)[C@H](C)C[C@H](C)/C=C/C=C/C=C/1C [everolimus]
- phosphorylation of 4EBP1 [1]: did not inhibit
- phosphorylation of S6K [2]: blocked
- decrease of cell movement compared to vehicle control [11]: 20%
- proliferation (lowest level reached) ([3]; even at 5000 nM): ≥ 40%
- CD44 and vimentin protein expression [4]: did not alter
